Laboratory results reported in the supplement of paper PMC5580409.

Test system: Plasmodium falciparum 3D7
Assay: pEC50, asexual blood-stage growth inhibition
Settings: 72 h
Method: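 Held-out test set measured in the Guy lab in 2014 with the same procedure as the primary St. Jude screen. P. falciparum 3D7 blood-stage culture (2% hematocrit, 1% parasitemia) was treated with compound for 72 h at 37 °C, and growth was read by SYBR Green I fluorescence. EC50 came from a four-parameter Hill fit over a 10-point dilution series […].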

| SMILES | pEC50 |
| --- | --- |
| COc1ccccc1-c1c(C(F)(F)F)oc2c(CN(C)C3CCCCC3)c(O)ccc2c1=O | < 4.82 |
| CCOC(=O)c1ccc(NC(=O)/C=C/c2ccccc2Cl)cc1 | < 4.82 |
| COc1ccccc1-c1cc(C(=O)N2CCC(Cc3ccccc3)CC2)c2ccccc2n1 | < 4.82 |
| c1cc(-c2nc3ccccc3[nH]2)nc(-c2nc3ccccc3[nH]2)c1 | 5.39 |
| CCOC(=O)c1ccc(NC(=O)CC2C(=O)N(c3ccc(OC)cc3)C(=O)N2CCC(C)C)cc1 (centres undefined) | < 4.82 |
| OCCC1CN(Cc2cc(Cl)ccc2O)CCN1C1CCCCC1 (centres undefined) | < 4.82 |
| Cc1ccc(OCCN(C)C(=O)c2cn(C3CCCCC3)cc(C(=O)NC(C)(C)C)c2=O)cc1 | 5.03 |
| CCOC(=O)C1=C(C)NC2=C(C(=O)CC(c3ccc(Cl)cc3)C2)C1c1ccc(OC)cc1 (centres undefined) | 5.93 |
| Oc1nc(/C=C/c2cccc3ccccc23)nc2ccccc12 | < 4.82 |
| OC(CNCc1ccc(OCc2ccccc2)cc1)c1ccccc1 (centres undefined) | 5.38 |
| OCCCNCC(O)Cn1c2ccccc2c2ccccc21 (centres undefined) | < 4.82 |
| CC(C)(C)NC(=O)c1cn(C2CCCCC2)cc(C(=O)NC2CCN(Cc3ccccc3)CC2)c1=O | < 4.82 |
| CC(C)c1ccc(/C=C/C(=O)Nc2ccc(F)cc2)cc1 | 5.21 |
| CC(CN1CCCCC1)NC(=O)c1cc(-c2cccnc2)nc2ccc(Cl)cc12 (centres undefined) | 5.7 |
| COc1ccc(Cl)cc1NCC(O)Cn1c2ccccc2c2ccccc21 (centres undefined) | < 4.82 |
| COc1cccc(-c2cc(C(=O)N3CCN(Cc4ccccc4)CC3)c3ccccc3n2)c1 | < 4.82 |
| COc1cc(C2CC(=O)NC3=C2C(=O)CC(c2ccc(OC)c(OC)c2)C3)c(OC)cc1Br (centres undefined) | 6.86 |
| CCOc1ccc(NC(=O)/C=C/c2ccccc2Cl)cc1 | 6.34 |
| CCOc1cc(C2C(C(=O)OCCOc3ccccc3)=C(C)NC3=C2C(=O)CC(c2ccc(Cl)cc2)C3)cc(Cl)c1O (centres undefined) | < 4.82 |
| OC(CNC1CCCCC1)Cn1c2ccccc2c2ccccc21 (centres undefined) | 5.33 |
| CC1=C(C(=O)OCCOc2ccccc2)C(c2cccc(O)c2)C2=C(CC(c3ccc(Cl)cc3)CC2=O)N1 (centres undefined) | < 4.82 |
| Cc1cc(OCC(O)CNC2CCCC2)ccc1Cl (centres undefined) | 6.61 |

| SMILES | pEC50 |
| --- | --- |
| CCN(CC)CCn1c(=N)n(CC(O)COc2ccccc2)c2ccccc21 (centres undefined) | < 4.82 |
| CCOC(=O)c1cnc2c(OC)cccc2c1Nc1cccc(C(C)=O)c1 | 5.55 |
| CN1CCN(CC(O)Cn2c3ccccc3c3cc(Cl)ccc32)CC1 (centres undefined) | < 4.82 |
| COc1cc(C2CC(=O)NC3=C2C(=O)CC(c2ccc(F)cc2)C3)c(OC)cc1Br (centres undefined) | < 4.82 |
| Cc1ccc(OCC(O)CNC2CCCCC2)cc1 (centres undefined) | 5.83 |
| Cc1cccc(NCC(O)Cn2c3ccc(Br)cc3c3cc(Br)ccc32)c1C (centres undefined) | 5.21 |
| Cc1ccc(OCC(O)CNC2CCCC2)c(C)c1 (centres undefined) | 5.19 |
| Cc1c(Cl)ccc2c(C(=O)NCCN3CCOCC3)cc(-c3ccncc3)nc12 | < 4.82 |
| CCN1/C(=C/c2sc3ccc(O)cc3[n+]2CC)C=Cc2cc(C)ccc21 | 6.3 |
| O=C(CNCc1ccccc1)c1ccc(Br)cc1 | < 4.82 |
| OCCC1CN(Cc2cc(Cl)ccc2O)CCN1CCCc1ccccc1 (centres undefined) | < 4.82 |
| COCCOC(=O)C1=C(C)NC2=C(C(=O)CC(c3ccc(OC)cc3)C2)C1c1ccc(Cl)cc1 (centres undefined) | 6.17 |
| CCC(C)c1ccc(NC(=O)/C=C/c2cccc(Cl)c2)cc1 (centres undefined) | < 4.82 |
| CCOc1ccc(C(O)Cn2c(=N)n(CCN3CCCCC3)c3ccccc32)cc1 (centres undefined) | < 4.82 |
| CC1CCC(C(C)C)C(OCC(O)CNC2CCCC2)C1 (centres undefined) | 5.46 |
| Cc1cccc(NCC(O)Cn2c3ccc(Cl)cc3c3cc(Cl)ccc32)c1 (centres undefined) | 5.35 |
| OCC(O)Cn1c2ccc(Br)cc2c2cc(Br)ccc21 (centres undefined) | < 4.82 |
| CCOc1cc(C2C(C(=O)OC(C)CC)=C(C)NC3=C2C(=O)CC(c2ccc(Cl)cc2)C3)ccc1O (centres undefined) | < 4.82 |
| CC[n+]1c(/C=C/c2cc(C)n(-c3ccccc3)c2C)sc2ccccc21 | < 4.82 |
| CCOC(=O)C1=C(C)NC2=C(C(=O)CC(c3ccc(OC)cc3)C2)C1c1cccc(F)c1 (centres undefined) | 6.13 |
| OC(CNCCc1ccccc1)c1ccccc1 (centres undefined) | 5.05 |
| O=S(=O)(/C=C/c1ccccc1)N1CCC(CO)(Cc2cccc(C(F)(F)F)c2)CC1 | < 4.82 |
